From patent US5621102A, “Process for preparing enantiomerically pure xanthine derivatives” (Cell Therapeutics, Inc., priority 1995, dated 1997)

Legend:
[1] = system: hair follicles of nu/nu mice; test: nude mouse hair studies, topical application; assay type: in vivo
Excerpt: This example illustrates nude mouse hair studies involving topical application of CT1501R. Six to eight week old, female, nu/nu mice from Charles River Laboratories were housed at Biosupport Research Support Services (Seattle, Wash.) in autoclaved micro isolator units with hyperchlorinated autoclaved water, irradiated rodent chow and kept under a laminar flow hood. Caging was changed weekly, and water was changed twice weekly. The mice were acclimated for 5 days before beginning each study.
The first topical formulation was prepared by adding CT1501R to a heated hydrophilic ointment (USP) at a 1% concentration, and allowed to solidify.
Nude mice were painted twice daily for 16 days with the first topical formulation of CT1501R on the left flank and another compound in the same base on the right flank with sterile applicators. Mice were handled under the laminar flow hood with applicator wearing face mask and sterile gloves. After 16 days, one mouse was sacrificed by cervical dislocation and skin biopsies were taken of the treated areas of the shoulder/flank and from the non-treated area of the dorsal pelvis (rump). Specimens were placed in 10% buffered formalin solution. Biopsies were sent to a veterinary dermopathologist for histopathology. Six weeks following treatment, a second mouse was euthanatized and biopsied the same as the first. Samples were sent for histopathology.
In a second experiment, topical application of CT1501R was performed along with a commercial topical minoxidil preparation (Rogaine®, Upjohn) that is approved for a hair growth indication. Five to six week old, female, nu/nu mice from Bantin and Kingman Universal were housed at Biosupport Research Support Services (Seattle, Wash.) in autoclaved micro isolator units with hyper chlorinated autoclaved water, irradiated rodent chow and kept under a laminar flow hood. Caging was changed weekly, and water was changed twice weekly. Mice were acclimated for 7 days before beginning study, […]

[2] = system: murine B-cell proliferation; test: B-cell proliferation assay (anti-mu antibody and/or IL-4); assay type: cell-based; conditions: stimulated by anti-mu antibody crosslinked and/or IL-4
Description: A B-cell proliferation assay determines the effect of the inventive compounds on inhibiting proliferation of stimulated B-cells, stimulated by an anti-mu antibody ([…]), IL-4 or PMA (2.5 nM). Ramos B-cell tumor cells or murine splenocytes can be incubated with a stimulating agent, an inventive compound and tritiated thymidine to measure inhibition of cell proliferation caused by the stimulating agent.

[3] = system: lysophosphatidic acid acyl transferase (LPAAT); test: in vitro inhibition of LPAAT in 3T3 Ras-transformed fibroblasts stimulated with IL-1β; assay type: cell-based
Description: FIG. 17 illustrates a comparison of CT1501R, its S isomer CT1501S, and PTX on in vitro inhibition of lysophosphatidic acid acyl transferase (LPAAT), an enzyme involved in second messenger signaling. […] LPAAT activity was determined in 3T3 Ras-transformed fibroblasts stimulated with IL-1β.
A method described here permits differentiation of the various subspecies of PA and DAG based upon acyl chain composition. This can differentiate those compounds that activate (and inhibit activation of) the present second messenger pathway from other pathways, such as the classical PI pathway. The present second messenger pathway involves substrates with unsaturated fatty acids in the sn-2 position other than arachidonate and those sub species of PAPH and LPAAT that are not involved in normal cellular housekeeping functions that are part of the classical PI pathway. […]
One in vitro assay measures inhibition of the relevant enzymes lysophosphatidic acid acyltransferase (LPAAT) and phosphatidic acid phosphoryl hydrolase (PAPH). […] It is important to note that the assay method permits discrimination between various forms of PA and DAG so that those relevant to the pathway affected by the (R) or (S) compounds of the invention can be measured directly. […] Thus, the relevant unsaturated (non-arachidonic) PA and DAG subspecies may be detected. […]

[4] = system: smooth muscle cells; test: smooth muscle proliferation stimulated by PDGF and IL-1; assay type: cell-based
Excerpt: CT1501R and PTX were separately added to the cells two hours prior to activation with PDGF and IL-1.

C[C@@H](O)CCCCn1c(=O)c2c(ncn2C)n(C)c1=O [CT1501R, (R)-1-(5-hydroxyhexyl)-3,7-dimethylxanthine]
hair follicles, histopathology of treated vs non treated skin sections ([1]; first experiment, 1% in hydrophilic ointment, twice daily for 16 days): significantly more normal appearing hair follicles than the non treated sections
hair follicles, subjective histopathological examination ([1]; second experiment, 60% ETOH, 10% water, 30% PEG base, twice daily, 34 days): greatest concentration of hair folicles
inhibition of murine B-cell proliferation [2]: inhibited B-cell proliferation
potency relative to racemic mixture (M1) [3]: two to three time more potent than the racemic mixture
inhibition of LPAAT enzyme activity ([3]; 3T3 Ras-transformed fibroblasts stimulated with IL-1β, at IC50 concentrations achievable in a clinical setting): significantly inhibited enzyme activity
activity compared with PTX, smooth muscle cell proliferation [4]: more active than PTX
inhibition of smooth muscle cell proliferation ([4]; drug added two hours prior to activation): inhibited smooth muscle cell proliferation at the higher doses tested
